Data as given in US10174035B2, “6-morpholinyl-2-pyrazolyl-9H-purine derivatives and their use as PI3K inhibitors” (Daiichi Sankyo Company, Limited, priority 2015, dated 2019).
In brackets after ≈: the same amount, converted by molar mass. Like-named read-outs stand apart in the source and are kept apart here.

Legend:
[1] = Solubility in Japanese Pharmacopeia First Fluid (JP1) and Second Fluid (JP2); type: physicochemical; settings: thermodynamic from solid, room temperature
Experimental: A 10 mmol/L solution of the test compound was prepared in DMSO and dispensed 100 μL of 10 mmol/L DMSO stock solutions into labeled glass tubes in duplicate, one for Japanese Pharmacopeia First Fluid (JP1) and second for Japanese Pharmacopeia Second Fluid (JP2). After evaporation of DMSO from each tube, 500 μL of JP1 and JP2 fluid were added in each tube, respectively. These tubes were sonicated for 1 minute and placed on shaker for 30 minutes with an interval of 30 seconds at every 5 minute. Tubes were placed in dark at room temperature for 1 hour and solution was filtered through membrane filter. The filtrate was diluted 2-fold and 10-fold. The resulting test solutions was analyzed and quantified against the standards using UPLC (standard preparation-10 mmol/L solution in DMSO is serially diluted with 50% aqueous acetonitrile solution to prepare 2 solutions; 100 μmol/L standard solution and 5 μmol/L standard solution).

PI3Kγ = PI3Kγ (Homo sapiens (Human), UniProt P48736); assay: In vitro enzyme assay (Kinase-Glo), selectivity, PI3Kγ; type: biochemical; settings: enzyme 2.29 μg/mL; ATP 10 μM; PIP2 60 μM; 2 hours
Experimental: The Kinase-Glo luminescent kinase assay kit (from Promega) was used to measure kinase activity. In this assay, amount of ATP remaining in solution following a kinase reaction is measured. […] The reaction mixture was incubated for 2 hours at room temperature. At the end of incubation period the equal volume of Kinase-Glo plus (Promega, V3772), was added per well and the luminescence was measured after incubating for 10 minutes at room temperature in dark. Results were calculated by measuring the luminescence units of test samples to blanks containing no enzyme.
(§1) The compounds of the present invention were tested for their selectivity for PI3Kδ over PI3Kα, PI3Kβ and PI3Kγ following the above assay using specific recombinant enzymes (Proteros, Germany) for each kinase. Assay condition of kinase assay (PI3Kα, PI3Kβ, PI3Kγ and PI3Kδ) was as follows.

[2] = system: IFN-γ release in mouse splenocytes; assay: Phytohaemagglutinin (PHA)-induced interferon (IFN)-gamma release in mouse splenocytes; parameters: species or system C57BL/6 mouse; settings: Splenocyte, PHA (10 μg/ml) for 48 hours, IFN-γ by ELISA, read-out: Cell Based IC50
Experimental: Effect of compounds on mitogen-induced IFN-γ release in mouse splenocytes was used to evaluate their potency in cell-based assay system [Blood (2010) 115: 2203-2213; Current Protocols in Immunology (2004) 3.12.1-3.12.20].
Mouse splenocytes were obtained from the spleen of a C57BL/6 mouse and plated at a density of 0.25 million cells/well in a 96 well tissue culture plate. The effect of the compounds to inhibit IFN-γ release was evaluated by treating the splenocytes with various concentrations of the test compounds followed by stimulation with PHA (10 μg/ml) for 48 hours. The IFN-γ release in the cell culture supernatant was quantified by ELISA as per the manufacturer's protocol (BD Biosciences, #555138).

PI3Kα = PI3Kα (Homo sapiens (Human), UniProt P42336); assay: In vitro enzyme assay (Kinase-Glo), selectivity, PI3Kα; type: biochemical; settings: enzyme 2.29 μg/mL; ATP 10 μM; PIP2 60 μM; 2 hours
Experimental: (§2) The Kinase-Glo luminescent kinase assay kit (from Promega) was used to measure kinase activity. In this assay, amount of ATP remaining in solution following a kinase reaction is measured. The effect of compounds on PI3Kδ inhibition was carried out by adding 2.29 μg/ml of recombinant PI3K δ enzyme (Proteros, Germany) to reaction mixture containing assay buffer (50 mM HEPES, pH 7.4, 50 mM NaCl, 0.05% CHAPS) supplemented with 10 mM MgCl2, 5 mM DTT, 60 μM Phosphatidyl inositol bisphosphate (PIP2) and 10 μM ATP in the absence or presence of different concentrations of the compounds in a final volume of 15 μl/well, in a 384 well plate. The reaction mixture was incubated for 2 hours at room temperature. At the end of incubation period the equal volume of Kinase-Glo plus (Promega, V3772), was added per well and the luminescence was measured after incubating for 10 minutes at room temperature in dark. Results were calculated by measuring the luminescence units of test samples to blanks containing no enzyme.
as §1, with “follows. Enzyme: 2.29 μg/mL; ATP: 10 μM; PIP2 substrate: 60 μM and Reaction Time: 2 hours.” for “follows.”

PI3Kβ = PI3Kβ (Homo sapiens (Human), UniProt P42338); assay: In vitro enzyme assay (Kinase-Glo), selectivity, PI3Kβ; type: biochemical; settings: enzyme 2.29 μg/mL; ATP 10 μM; PIP2 60 μM; 2 hours
Experimental: as §2
as §1, with “follows. Enzyme: 2.29 μg/mL; ATP: 10 μM; PIP2 substrate: 60 μM and Reaction Time: 2 hours.” for “follows.”

[3] = target: recombinant PI3K δ enzyme (Homo sapiens (Human), UniProt O00329); assay: In vitro enzyme assay (Kinase-Glo luminescent kinase assay), PI3Kδ; type: biochemical
Procedure, shortened: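 Each recombinant human PI3K isoform at 2.29 μg/mL with 60 μM PIP2 and 10 μM ATP in HEPES pH 7.4, NaCl, CHAPS, MgCl2, DTT, 2 hours at room temperature. Remaining ATP read by Kinase-Glo luminescence relative to no-enzyme blanks.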

[4] = pH 1.2, simulated gastric fluid, Japanese Pharmacopeia First Fluid (JP1), read-out: Solubility JP1
[5] = pH 6.8, aqueous buffer, Japanese Pharmacopeia Second Fluid (JP2), read-out: Solubility JP2
[6] = enzyme 2.29 μg/mL, ATP 10 μM, PIP2 60 μM, 2 hours

Chain of PI3Kα (P42336 whole entry, species assumed): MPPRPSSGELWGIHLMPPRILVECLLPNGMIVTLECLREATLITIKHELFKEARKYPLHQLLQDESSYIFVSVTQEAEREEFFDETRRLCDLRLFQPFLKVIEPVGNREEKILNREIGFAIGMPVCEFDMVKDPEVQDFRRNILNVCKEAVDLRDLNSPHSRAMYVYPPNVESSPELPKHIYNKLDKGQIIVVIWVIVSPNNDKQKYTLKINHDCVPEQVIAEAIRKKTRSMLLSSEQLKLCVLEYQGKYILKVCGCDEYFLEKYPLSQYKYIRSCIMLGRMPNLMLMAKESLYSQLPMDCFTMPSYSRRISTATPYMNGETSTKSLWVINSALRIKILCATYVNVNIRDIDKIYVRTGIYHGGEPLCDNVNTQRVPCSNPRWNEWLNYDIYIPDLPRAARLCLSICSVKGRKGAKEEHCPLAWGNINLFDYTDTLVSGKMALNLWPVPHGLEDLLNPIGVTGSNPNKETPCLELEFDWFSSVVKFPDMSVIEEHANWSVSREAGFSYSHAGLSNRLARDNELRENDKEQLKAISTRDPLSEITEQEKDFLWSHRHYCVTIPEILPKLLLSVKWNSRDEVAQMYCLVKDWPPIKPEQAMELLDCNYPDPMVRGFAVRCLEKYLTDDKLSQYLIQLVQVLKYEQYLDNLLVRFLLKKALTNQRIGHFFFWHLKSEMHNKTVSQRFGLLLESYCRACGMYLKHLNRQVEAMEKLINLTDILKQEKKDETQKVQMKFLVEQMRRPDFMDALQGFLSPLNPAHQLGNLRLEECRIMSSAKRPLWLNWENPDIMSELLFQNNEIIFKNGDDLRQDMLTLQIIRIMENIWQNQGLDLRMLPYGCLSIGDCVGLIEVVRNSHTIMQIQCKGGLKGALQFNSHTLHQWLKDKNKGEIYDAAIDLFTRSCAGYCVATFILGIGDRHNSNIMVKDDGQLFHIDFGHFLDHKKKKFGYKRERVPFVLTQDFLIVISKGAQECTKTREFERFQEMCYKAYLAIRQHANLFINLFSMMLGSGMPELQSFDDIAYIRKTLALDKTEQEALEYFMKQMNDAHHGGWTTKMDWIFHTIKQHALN
Chain of PI3Kα (P27986 whole entry partner, species assumed): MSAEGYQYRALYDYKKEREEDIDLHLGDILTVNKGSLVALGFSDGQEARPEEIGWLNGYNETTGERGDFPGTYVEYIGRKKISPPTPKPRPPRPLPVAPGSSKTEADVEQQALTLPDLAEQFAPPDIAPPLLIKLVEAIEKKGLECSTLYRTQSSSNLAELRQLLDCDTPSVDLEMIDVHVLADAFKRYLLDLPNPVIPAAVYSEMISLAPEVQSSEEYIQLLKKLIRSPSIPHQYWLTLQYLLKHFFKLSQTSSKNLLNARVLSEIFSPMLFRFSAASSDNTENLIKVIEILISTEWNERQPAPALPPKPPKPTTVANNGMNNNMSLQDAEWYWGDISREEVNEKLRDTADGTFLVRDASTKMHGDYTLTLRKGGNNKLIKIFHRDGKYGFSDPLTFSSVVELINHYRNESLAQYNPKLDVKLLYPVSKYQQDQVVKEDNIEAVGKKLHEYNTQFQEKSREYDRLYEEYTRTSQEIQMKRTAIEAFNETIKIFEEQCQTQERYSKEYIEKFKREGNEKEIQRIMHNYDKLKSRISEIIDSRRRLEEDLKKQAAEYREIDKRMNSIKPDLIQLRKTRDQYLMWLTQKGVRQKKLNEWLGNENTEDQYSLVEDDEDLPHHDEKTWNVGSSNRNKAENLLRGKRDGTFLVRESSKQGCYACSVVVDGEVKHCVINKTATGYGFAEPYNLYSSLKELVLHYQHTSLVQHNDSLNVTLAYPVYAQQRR
Chain of recombinant PI3K δ enzyme (O00329 whole entry, species assumed, canonical isoform): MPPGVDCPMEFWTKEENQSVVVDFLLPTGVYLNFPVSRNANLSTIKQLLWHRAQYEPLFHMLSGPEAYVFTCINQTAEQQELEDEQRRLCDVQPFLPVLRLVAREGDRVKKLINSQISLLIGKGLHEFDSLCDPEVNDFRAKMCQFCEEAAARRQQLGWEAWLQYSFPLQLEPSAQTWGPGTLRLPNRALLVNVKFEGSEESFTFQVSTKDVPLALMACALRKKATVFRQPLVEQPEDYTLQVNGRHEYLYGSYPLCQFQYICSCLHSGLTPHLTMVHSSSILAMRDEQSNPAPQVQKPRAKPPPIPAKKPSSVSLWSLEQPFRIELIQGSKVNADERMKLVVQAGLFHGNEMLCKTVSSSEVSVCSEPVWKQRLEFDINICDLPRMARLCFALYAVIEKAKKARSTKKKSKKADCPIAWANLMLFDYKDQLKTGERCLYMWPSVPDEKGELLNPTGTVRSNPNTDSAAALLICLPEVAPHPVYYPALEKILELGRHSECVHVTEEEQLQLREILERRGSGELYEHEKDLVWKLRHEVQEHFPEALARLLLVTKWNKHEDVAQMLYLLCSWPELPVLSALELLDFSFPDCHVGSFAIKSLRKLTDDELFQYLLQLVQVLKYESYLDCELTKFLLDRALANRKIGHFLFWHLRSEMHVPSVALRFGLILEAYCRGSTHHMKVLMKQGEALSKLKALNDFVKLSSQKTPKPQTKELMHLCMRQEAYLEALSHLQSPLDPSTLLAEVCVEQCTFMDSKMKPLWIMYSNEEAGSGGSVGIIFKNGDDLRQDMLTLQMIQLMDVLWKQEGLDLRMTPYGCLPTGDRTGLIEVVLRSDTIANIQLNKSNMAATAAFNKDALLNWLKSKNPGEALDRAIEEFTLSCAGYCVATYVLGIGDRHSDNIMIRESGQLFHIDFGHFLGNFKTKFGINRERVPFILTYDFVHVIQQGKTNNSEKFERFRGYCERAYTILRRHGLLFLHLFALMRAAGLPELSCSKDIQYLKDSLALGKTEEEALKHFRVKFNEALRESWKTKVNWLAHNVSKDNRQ
Chain of recombinant PI3K δ enzyme (P27986 whole entry partner, species assumed, canonical isoform): as the sequence (P27986 whole entry partner, species assumed) above
Chain of PI3Kβ (P42338 whole entry, species assumed): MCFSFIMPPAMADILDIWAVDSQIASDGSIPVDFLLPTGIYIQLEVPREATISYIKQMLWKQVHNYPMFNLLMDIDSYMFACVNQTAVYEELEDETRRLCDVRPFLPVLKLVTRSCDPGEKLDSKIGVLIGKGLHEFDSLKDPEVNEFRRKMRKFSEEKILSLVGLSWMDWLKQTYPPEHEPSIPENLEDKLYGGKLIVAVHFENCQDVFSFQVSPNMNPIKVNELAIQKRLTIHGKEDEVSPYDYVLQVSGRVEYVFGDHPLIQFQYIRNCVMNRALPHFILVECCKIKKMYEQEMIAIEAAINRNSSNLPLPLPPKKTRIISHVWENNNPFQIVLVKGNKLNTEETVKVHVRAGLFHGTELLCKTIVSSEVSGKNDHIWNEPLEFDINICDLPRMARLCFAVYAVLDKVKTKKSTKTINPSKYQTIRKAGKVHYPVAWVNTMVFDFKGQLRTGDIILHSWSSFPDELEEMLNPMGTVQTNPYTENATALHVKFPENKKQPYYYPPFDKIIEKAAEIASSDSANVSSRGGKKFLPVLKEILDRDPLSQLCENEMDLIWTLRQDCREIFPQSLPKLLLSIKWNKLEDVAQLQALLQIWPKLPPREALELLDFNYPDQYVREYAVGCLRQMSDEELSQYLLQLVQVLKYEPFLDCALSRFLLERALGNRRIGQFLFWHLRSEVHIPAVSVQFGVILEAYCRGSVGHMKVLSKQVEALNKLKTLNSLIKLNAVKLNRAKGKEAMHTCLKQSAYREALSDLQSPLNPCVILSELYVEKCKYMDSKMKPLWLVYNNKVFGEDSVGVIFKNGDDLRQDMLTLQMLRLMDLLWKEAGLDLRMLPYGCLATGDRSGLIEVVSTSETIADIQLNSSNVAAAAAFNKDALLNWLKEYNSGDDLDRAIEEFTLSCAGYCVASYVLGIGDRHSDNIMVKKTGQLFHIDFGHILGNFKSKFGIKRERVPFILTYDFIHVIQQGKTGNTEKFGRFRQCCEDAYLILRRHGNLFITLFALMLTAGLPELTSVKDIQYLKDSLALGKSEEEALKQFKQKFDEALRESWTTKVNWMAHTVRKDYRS
Chain of PI3Kβ (P27986 whole entry partner, species assumed): as the sequence (P27986 whole entry partner, species assumed) above
Chain of PI3Kγ (P48736 whole entry, species assumed): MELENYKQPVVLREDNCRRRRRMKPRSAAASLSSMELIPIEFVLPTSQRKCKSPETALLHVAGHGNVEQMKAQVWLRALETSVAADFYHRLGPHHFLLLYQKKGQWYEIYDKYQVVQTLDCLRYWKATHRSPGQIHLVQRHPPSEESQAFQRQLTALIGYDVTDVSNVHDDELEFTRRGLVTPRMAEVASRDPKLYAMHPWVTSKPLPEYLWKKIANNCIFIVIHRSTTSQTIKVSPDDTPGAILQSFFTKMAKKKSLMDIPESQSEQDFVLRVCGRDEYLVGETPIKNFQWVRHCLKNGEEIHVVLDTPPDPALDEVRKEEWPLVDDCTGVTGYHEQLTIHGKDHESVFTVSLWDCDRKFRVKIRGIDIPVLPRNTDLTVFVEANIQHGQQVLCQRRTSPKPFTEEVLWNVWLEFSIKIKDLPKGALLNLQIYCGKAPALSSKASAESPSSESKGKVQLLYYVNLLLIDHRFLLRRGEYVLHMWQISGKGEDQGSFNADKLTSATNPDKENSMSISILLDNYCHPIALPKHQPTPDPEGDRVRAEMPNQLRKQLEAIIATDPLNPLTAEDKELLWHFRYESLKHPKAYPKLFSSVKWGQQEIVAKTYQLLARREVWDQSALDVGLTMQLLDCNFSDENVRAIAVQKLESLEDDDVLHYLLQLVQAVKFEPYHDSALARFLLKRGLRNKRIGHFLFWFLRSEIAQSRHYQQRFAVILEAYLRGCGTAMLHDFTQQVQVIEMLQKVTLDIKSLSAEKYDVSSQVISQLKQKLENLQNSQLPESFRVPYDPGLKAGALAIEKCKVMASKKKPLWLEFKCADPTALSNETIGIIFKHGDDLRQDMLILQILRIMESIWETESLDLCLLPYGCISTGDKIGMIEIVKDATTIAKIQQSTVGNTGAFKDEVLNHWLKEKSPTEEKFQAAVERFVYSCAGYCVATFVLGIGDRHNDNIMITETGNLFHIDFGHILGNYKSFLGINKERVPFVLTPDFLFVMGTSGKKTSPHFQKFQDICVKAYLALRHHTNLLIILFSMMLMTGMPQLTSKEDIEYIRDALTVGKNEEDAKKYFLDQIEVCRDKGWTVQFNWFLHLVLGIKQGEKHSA

Structure (SMILES)	solubility at 30 min [1, 4] [µg/mL]	solubility at 30 min [1, 5] [µg/mL]	IC50 (PI3Kγ) [nM]	IC50 [2] [nM]	IC50 (PI3Kα) [nM]	IC50 (PI3Kβ) [nM]	IC50 [3] [nM]	IC50 [3, 6] [nM]
O=C(c1nc2c(N3CCOCC3)nc(-c3cn[nH]c3)nc2[nH]1)N1CCC(N2CCOCC2)CC1 [compound 42, [4-(Morpholin-4-yl)piperidin-1-yl][6-(morpholin-4-yl)-2-(1H-pyrazol-4-yl)-9H-purin-8-yl]methanone]	> 1510	124 (≈ 265 µM)						
O=C(c1nc2c(N3CCOCC3)nc(-c3c[nH]nc3C(F)(F)F)nc2[nH]1)N1CCC(N2CCOCC2)CC1 [compound 19, [4-(Morpholin-4-yl)piperidin-1-yl]{6-(morpholin-4-yl)-2-[3-(trifluoromethyl)-1H-pyrazol-4-yl]-9H-purin-8-yl}methanone]			5660	192	4050	> 10000	13	13
Cn1cc(-c2nc(N3CCOCC3)c3nc(C(=O)N4CCC(C(C)(C)O)CC4)[nH]c3n2)cn1 [compound 14, [4-(2-Hydroxypropan-2-yl)piperidin-1-yl][2-(1-methyl-1H-pyrazol-4-yl)-6-(morpholin-4-yl)-9H-purin-8-yl]methanone]			584	810	> 1000	> 10000	16	16
CN1CCCC1CCNC(=O)c1nc2c(N3CCOCC3)nc(-c3cnn(C)c3)nc2[nH]1 (stereo not drawn) [compound 64, 2-(1-Methyl-1H-pyrazol-4-yl)-N-{2-[1-methylpyrrolidin-2-yl]ethyl}-6-(morpholin-4-yl)-9H-purine-8-carboxamide]			6130	112	984	> 10000	17	17
Cn1cc(-c2nc(N3CCOCC3)c3nc(C(=O)NCCCN4CCOCC4)n(C)c3n2)cn1 [compound 67, 9-Methyl-2-(1-methyl-1H-pyrazol-4-yl)-6-(morpholin-4-yl)-N-[3-(morpholin-4-yl)propyl]-9H-purine-8-carboxamide]			> 1000	27	> 1000	> 10000	11	11
Cc1nn(C)cc1-c1nc(N2CCOCC2)c2nc(C(=O)N3CCC(N4CCOCC4)CC3)[nH]c2n1 [compound 41, [2-(1,3-Dimethyl-1H-pyrazol-4-yl)-6-(morpholin-4-yl)-9H-purin-8-yl][4-(morpholin-4-yl)piperidin-1-yl]methanone]			2100	225	8820	> 10000	14	14

Second part, the molecule after the results:

solubility at 30 min [1, 4] [µg/mL]	solubility at 30 min [1, 5] [µg/mL]	IC50 (PI3Kγ) [nM]	IC50 [2] [nM]	IC50 (PI3Kα) [nM]	IC50 (PI3Kβ) [nM]	IC50 [3] [nM]	IC50 [3, 6] [nM]	Structure (SMILES)
932 (≈ 1940 µM)	560 (≈ 1170 µM)					19		Cn1cc(-c2cc(N3CCOCC3)c3nc(C(=O)N4CCC(N5CCOCC5)CC4)[nH]c3n2)cn1 [compound 102, [5-(1-Methyl-1H-pyrazol-4-yl)-7-(morpholin-4-yl)-3H-imidazo[4,5-b]pyridin-2-yl][4-(morpholin-4-yl)piperidin-1-yl]methanone]
		8460	222	> 1000	> 10000	27	27	Cc1nn(C)cc1-c1nc2[nH]c(C(=O)N3CCC(O)CC3)nc2c(N2CCOCC2)c1F [compound 86, [5-(1,3-Dimethyl-1H-pyrazol-4-yl)-6-fluoro-7-(morpholin-4-yl)-3H-imidazo[4,5-b]pyridin-2-yl](4-hydroxypiperidin-1-yl)methanone]
		> 1000	1270	> 1000	> 10000	19	19	Cc1nn(C)cc1-c1nc2[nH]c(C(=O)N3CCC(C(N)=O)CC3)nc2c(N2CCOCC2)c1F [compound 85, 1-{[5-(1,3-Dimethyl-1H-pyrazol-4-yl)-6-fluoro-7-(morpholin-4-yl)-3H-imidazo[4,5-b]pyridin-2-yl]carbonyl}piperidine-4-carboxamide]
808 (≈ 1630 µM)	754 (≈ 1520 µM)	3030	11	971	9910	4	4	Cc1nn(C)cc1-c1cc(N2CCOCC2)c2nc(C(=O)N3CCC(N4CCOCC4)CC3)[nH]c2n1 [compound 94, [5-(1,3-Dimethyl-1H-pyrazol-4-yl)-7-(morpholin-4-yl)-3H-imidazo[4,5-b]pyridin-2-yl][4-(morpholin-4-yl)piperidin-1-yl]methanone]
> 936	> 923	961	183	1080	> 10000	3	3	Cc1nn(C)cc1-c1nc2[nH]c(C(=O)N3CCC(N(C)C)CC3)nc2c(N2CCOCC2)c1F [compound 97, [4-(Dimethylamino)piperidin-1-yl][5-(1,3-dimethyl-1H-pyrazol-4-yl)-6-fluoro-7-(morpholin-4-yl)-3H-imidazo[4,5-b]pyridin-2-yl]methanone]
1430 (≈ 2890 µM)	251 (≈ 508 µM)					9		Cn1cc(-c2cc(N3CCOCC3)c3nc(C(=O)N4CCC(N5CCOCC5=O)CC4)[nH]c3n2)cn1 [compound 77, 4-(1-{[5-(1-Methyl-1H-pyrazol-4-yl)-7-(morpholin-4-yl)-3H-imidazo[4,5-b]pyridin-2-yl]carbonyl}piperidin-4-yl)morpholin-3-one]
		> 1000	296	> 1000	> 10000	17	17	Cn1cc(-c2nc(N3CCOCC3)c3nc(C(=O)NCCCN4CCCC4=O)[nH]c3n2)cn1 [compound 68, 2-(1-Methyl-1H-pyrazol-4-yl)-6-(morpholin-4-yl)-N-[3-(2-oxopyrrolidin-1-yl)propyl]-9H-purine-8-carboxamide]
		> 1000	333	> 1000	> 10000	18	18	O=C(c1nc2c(N3CCOCC3)nc(-c3cn[nH]c3)nc2[nH]1)N1CCC2(CC1)COC2 [compound 72, [6-(Morpholin-4-yl)-2-(1H-pyrazol-4-yl)-9H-purin-8-yl](2-oxa-7-azaspiro[3.5]non-7-yl)methanone]
816 (≈ 1790 µM)	321 (≈ 703 µM)					29		CN(C)C1CCN(C(=O)c2nc3c(N4CCOCC4)c(F)c(-c4cnn(C)c4)nc3[nH]2)CC1 [compound 99, [4-(Dimethylamino)piperidin-1-yl][6-fluoro-5-(1-methyl-1H-pyrazol-4-yl)-7-(morpholin-4-yl)-3H-imidazo[4,5-b]pyridin-2-yl]methanone]
